Here are results for nine compounds from US7799809B2, “Carboxamide compounds and their use as calpain inhibitors” (Abbott GmbH & Co. KG, priority 2006, dated 2010).

Structures are written as SMILES.

Holding throughout (type): biochemical
One experiment deals with T1, cathepsin L (Homo sapiens, UniProt P07711).
T1 construct: cathepsin L—isolated from human liver (Calbiochem #219402); purchased Calbiochem 219402; host or cells: human liver (tissue-derived)
Description: Cathepsin L enzyme inhibition in vitro (kinetic fluorescence assay). The conditions noted are these: cathepsin L isolated from human liver vs calpain I. The essentials:
(§1)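 Cathepsin B (0.25 nM, human liver) with 100 μM Z-Phe-Arg-AMC; L (1 nM, human liver) with 2 μM Z-Phe-Arg-AMC; S (0.5 nM, recombinant) with 20 μM Z-Val-Val-Arg-AMC. pH 6.0 MES buffer, 2.5 mM L-cysteine, room temperature. Kinetic fluorescence (ex 390/em 460 nm); apparent Ki from IC50 by Cheng-Prusoff.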

The next experiment concerns the target T2, cathepsin B (Homo sapiens, UniProt P07858).
T2 construct: cathepsin B—isolated from human liver (Calbiochem #219362); purchased Calbiochem 219362; host or cells: human liver (tissue-derived)
Description: Cathepsin B enzyme inhibition in vitro (kinetic fluorescence assay). The settings on record: cathepsin B isolated from human liver vs calpain I. As for the experimental part: (§2) The following solutions and buffers were employed: • HBS (for 40 ml): 800 μl M HEPES; 2.16 ml 100 mM KCl; 4.8 ml 1M NaCl; 3.59 ml 5% glucose; 60 μl μM MgSO4; 400 μl 100 mM Na pyruvate, 28.19 ml water; pH 7.2-7.5. • lysis buffer (for 20 ml): 400 μl M Tris pH 8.2; 2.74 ml 1M NaCl; 520 μl 0.5M EDTA; 2 ml 10% triton X-100; 0.8 ml (=1:25) CompletePlus (1 tablet/2 ml H2O); 200 μl 100 mM Pefabloc; 13.34 ml water, pH 8.2. • TBST (10×) (for 1 l): 100 mM Tris (12.1 g); 1.5M NaCl (87 g); 1% Tween 20 (10 g), adjusted to pH 8. I Enzyme Inhibition In Vitro: • Testing for blockade of the corresponding enzymic activities was carried out by means of kinetic fluorescence assays (excitation 390 nm, emission 460 nm). • Apparent Ki values were calculated from the experimentally determined IC50 values by the Cheng-Prussoff relation assuming a reversible competitive enzyme inhibition. The Km values of the substrates used under the assay conditions indicated above were: 90 μM (Z-Phe-Arg-AMC, cathepsin B), 10 μM (Z-Gly-Pro-Arg-AMC, cathepsin K), 2 μM (Z-Phe-Arg-AMC, cathepsin L), and 30 μM (Z-Val-Val-Arg-AMC, cathepsin S). • The indicated Ki values are averages of the inhibition constants calculated on the basis of 2 to 4 independent dose-effect plots.
(§3) The following assays were used: • 1. Calpain I: • 20 nM calpain-I—isolated from human erythrocytes (Calbiochem #208713), 100 μM Suc-Leu-Tyr-AMC (Bachem #1-1355) as substrate in buffer with 62 mM imidazole, 0.3 mM CaCl2, 0.10% CHAPS, 0.05% BSA, 1 mM DTT at pH 7.3 and room temperature. • 2. Cathepsin B: • 0.25 nM cathepsin B—isolated from human liver (Calbiochem #219362), 100 μM Z-Phe-Arg-AMC (Bachem #I-1160) as substrate 50 mM MES, 2 mM EDTA, 0.05% Brij 35, 2.5 mM L-cysteine, pH 6.0, room temperature. • 3. Cathepsin K: • 3 nM cathepsin K—activated from recombinant human procathepsin K from E. coli (Calbiochem #342001), 10 μM Z-Gly-Pro-Arg-AMC (Biomol #P-142) as substrate in 50 mM MES, 2 mM EDTA, 0.05% Brij 35, 2.5 mM L-cysteine, pH 6.0, room temperature. • 4. Cathepsin L: • 1 nM cathepsin L—isolated from human liver (Calbiochem #219402), 2 μM Z-Phe-Arg-AMC (Bachem #1-1160) as substrate in 50 mM MES, 2 mM EDTA, 0.05% Brij 35, 2.5 mM L-cysteine, pH 6.0, room temperature. • 5. Cathepsin S: • 0.5 nM recombinant human cathepsin S from E. coli (Calbiochem #219343), 20 μM Z-Val-Val-Arg-AMC (Bachem #1-1540) as substrate in 50 mM MES, 2 mM EDTA, 0.05% Brij 35, 2.5 mM L-cysteine, pH 6.0, room temperature. • The results of the in vitro determination are indicated in Table 1. The following abbreviations are used in Table 1: • The “Calpain activity” column, ++ stands for a calpain Ki (Ki(calpain)) of ≦40 nM and + means: 40 nM<Ki(Calpain)≦100 nM. • The “Sel. cat. B” column indicates the Ki(cathepsin B)/Ki(calpain) ratio. In this connection, ++ means a Ki(cathepsin B)/Ki(calpain) ratio of ≧30 and + means 10≦Ki(cathepsin B)/Ki(calpain)<30. • The “Sel. cat. K” column indicates the Ki(cathepsin K)/Ki(calpain) ratio. In this connection, ++ means a Ki(cathepsin K)/Ki(calpain) ratio of ≧30 and + means 10≦Ki(cathepsin K)/Ki(calpain)<30. • The “Sel. cat. L” column indicates the Ki(cathepsin L)/Ki(calpain) ratio. In this connection, ++ means a Ki(cathepsin L)/Ki(calpain) ratio of ≧50 and + means 30≦Ki(cathepsin L)/Ki(calpain)<50. • The “Sel. cat. S” column indicates the Ki(cathepsin S)/Ki(calpain) ratio. In this connection, ++ means a Ki(cathepsin S)/Ki(calpain) ratio of ≧100 and + means 50≦Ki(cathepsin S)/Ki(calpain)<100.

The target of another experiment is T3, cathepsin S (Homo sapiens, UniProt P25774).
T3 construct: purchased Calbiochem 219343; host or cells: E. coli
T3 sequence (P25774 115-331): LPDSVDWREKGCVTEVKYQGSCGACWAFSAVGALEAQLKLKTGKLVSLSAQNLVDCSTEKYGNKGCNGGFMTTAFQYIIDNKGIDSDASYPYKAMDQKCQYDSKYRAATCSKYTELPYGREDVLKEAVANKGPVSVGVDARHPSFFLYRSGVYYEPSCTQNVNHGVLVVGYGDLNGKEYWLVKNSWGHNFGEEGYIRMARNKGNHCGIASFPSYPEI
Description: Cathepsin S enzyme inhibition in vitro (kinetic fluorescence assay). The settings on record: recombinant human cathepsin S vs calpain I. In outline: as §1

For a further experiment, the target named is T4, cathepsin K (Homo sapiens, UniProt P43235).
T4 construct: purchased Calbiochem 342001; host or cells: E. coli
T4 sequence (P43235 115-329): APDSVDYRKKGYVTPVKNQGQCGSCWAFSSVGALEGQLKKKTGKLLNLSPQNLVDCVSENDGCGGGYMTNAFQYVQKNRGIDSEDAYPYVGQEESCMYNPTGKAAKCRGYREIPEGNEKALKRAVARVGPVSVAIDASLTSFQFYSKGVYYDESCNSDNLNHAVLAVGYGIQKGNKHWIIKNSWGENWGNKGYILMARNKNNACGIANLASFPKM
Description: Cathepsin K enzyme inhibition in vitro (kinetic fluorescence assay). The settings on record: cathepsin K activated from recombinant human procathepsin K vs calpain I. The procedure: as §2, §3

T1 sequence (P07711 114-333): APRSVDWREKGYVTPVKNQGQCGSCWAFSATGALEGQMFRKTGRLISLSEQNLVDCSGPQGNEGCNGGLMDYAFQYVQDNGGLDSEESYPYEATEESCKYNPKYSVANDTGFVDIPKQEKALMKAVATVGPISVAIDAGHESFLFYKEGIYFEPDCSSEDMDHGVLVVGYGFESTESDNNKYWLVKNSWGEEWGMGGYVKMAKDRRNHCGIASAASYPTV

As for `NC(=O)C(=O)C(Cc1ccccc1)NC(=O)c1cccnc1-n1ccc(-c2ccccn2)n1` (centres unmarked) [Example 35, N-(3-Amino-1-benzyl-2,3-dioxopropyl)-2-(3-pyridin-2-yl-1H-pyrazol-1-yl)nicotinamide], the “Sel cat. L: Ki(cathepsin L)/Ki(calpain) ratio” value on cathepsin L is “++ (++ means a Ki(cathepsin L)/Ki(calpain) ratio of ≧50)”. Also, on cathepsin B, the “Sel cat. B: Ki(cathepsin B)/Ki(calpain) ratio” value is recorded as “+ (+ means 10≦Ki(cathepsin B)/Ki(calpain)<30)”. The “Sel cat. S: Ki(cathepsin S)/Ki(calpain) ratio” value at cathepsin S is “++ (++ means a Ki(cathepsin S)/Ki(calpain) ratio of ≧100)”. Also, the “Sel cat. K: Ki(cathepsin K)/Ki(calpain) ratio” value on cathepsin K is given as “+ (+ means 10≦Ki(cathepsin K)/Ki(calpain)<30)”.
In the case of `NC(=O)C(=O)C(Cc1ccccc1)NC(=O)c1cccnc1-n1ccc(-c2ccc3c(c2)OC(F)(F)O3)n1` (centres unmarked) [Example 118, N-[3-Amino-2,3-dioxo-1-(phenylmethyl)propyl]-2-[3-(2,2-difluoro-1,3-benzodioxol-5-yl)-1H-pyrazol-1-yl]pyridine-3-carboxamide], the “Sel cat. L: Ki(cathepsin L)/Ki(calpain) ratio” value on cathepsin L is recorded as “++ (++ means a Ki(cathepsin L)/Ki(calpain) ratio of ≧50)”. In addition, the “Sel cat. B: Ki(cathepsin B)/Ki(calpain) ratio” value at cathepsin B is “++ (++ means a Ki(cathepsin B)/Ki(calpain) ratio of ≧30)”. Besides, on cathepsin S, the “Sel cat. S: Ki(cathepsin S)/Ki(calpain) ratio” value is “++ (++ means a Ki(cathepsin S)/Ki(calpain) ratio of ≧100)”. Also, the “Sel cat. K: Ki(cathepsin K)/Ki(calpain) ratio” value at cathepsin K was “+ (+ means 10≦Ki(cathepsin K)/Ki(calpain)<30)”.
As for `NC(=O)C(=O)C(Cc1ccccc1)NC(=O)c1cccnc1-n1ccc(-c2cccc(Cl)c2)n1` (centres unmarked) [Example 70, N-(3-Amino-1-benzyl-2,3-dioxopropyl)-2-[3-(3-chlorophenyl)-1H-pyrazol-1-yl]nicotinamide], the “Sel cat. L: Ki(cathepsin L)/Ki(calpain) ratio” value at cathepsin L is given as “++ (++ means a Ki(cathepsin L)/Ki(calpain) ratio of ≧50)”. Also, the “Sel cat. B: Ki(cathepsin B)/Ki(calpain) ratio” value on cathepsin B is “+ (+ means 10≦Ki(cathepsin B)/Ki(calpain)<30)”. In addition, on cathepsin S, the “Sel cat. S: Ki(cathepsin S)/Ki(calpain) ratio” value is recorded as “++ (++ means a Ki(cathepsin S)/Ki(calpain) ratio of ≧100)”. The “Sel cat. K: Ki(cathepsin K)/Ki(calpain) ratio” value on cathepsin K was “+ (+ means 10≦Ki(cathepsin K)/Ki(calpain)<30)”.
In the case of `NC(=O)C(=O)C(Cc1ccccc1)NC(=O)c1cccnc1-n1ccc(-c2cccc3c2OC(F)(F)O3)n1` (centres unmarked) [Example 119, N-[3-Amino-2,3-dioxo-1-(phenylmethyl)propyl]-2-[3-(2,2-difluoro-1,3-benzodioxol-4-yl)-1H-pyrazol-1-yl]pyridine-3-carboxamide], the “Sel cat. L: Ki(cathepsin L)/Ki(calpain) ratio” value at cathepsin L was “++ (++ means a Ki(cathepsin L)/Ki(calpain) ratio of ≧50)”. Moreover, the “Sel cat. B: Ki(cathepsin B)/Ki(calpain) ratio” value at cathepsin B is reported as “++ (++ means a Ki(cathepsin B)/Ki(calpain) ratio of ≧30)”. The “Sel cat. S: Ki(cathepsin S)/Ki(calpain) ratio” value at cathepsin S is reported as “++ (++ means a Ki(cathepsin S)/Ki(calpain) ratio of ≧100)”. Further, the “Sel cat. K: Ki(cathepsin K)/Ki(calpain) ratio” value on cathepsin K is listed as “++ (++ means a Ki(cathepsin K)/Ki(calpain) ratio of ≧30)”.
Take `COc1ccc(-c2ccn(-c3ncccc3C(=O)NC(Cc3ccccc3)C(=O)C(N)=O)n2)c(OC)c1` (centres unmarked) [Example 117, N-[3-Amino-2,3-dioxo-1-(phenylmethyl)propyl]-2-{3-[2,4-bis(methyloxy)phenyl]-1H-pyrazol-1-yl}pyridine-3-carboxamide]: the “Sel cat. L: Ki(cathepsin L)/Ki(calpain) ratio” value on cathepsin L is recorded as “++ (++ means a Ki(cathepsin L)/Ki(calpain) ratio of ≧50)”. Further, the “Sel cat. B: Ki(cathepsin B)/Ki(calpain) ratio” value at cathepsin B is “++ (++ means a Ki(cathepsin B)/Ki(calpain) ratio of ≧30)”. Further, the “Sel cat. S: Ki(cathepsin S)/Ki(calpain) ratio” value at cathepsin S is “++ (++ means a Ki(cathepsin S)/Ki(calpain) ratio of ≧100)”. At cathepsin K, the “Sel cat. K: Ki(cathepsin K)/Ki(calpain) ratio” value is given as “++ (++ means a Ki(cathepsin K)/Ki(calpain) ratio of ≧30)”.
Taken in the same sequence, the figures for `NC(=O)C(=O)C(Cc1ccccc1)NC(=O)c1cccnc1-n1ccc(-c2ccccc2OC(F)F)n1` (centres unmarked) [Example 166, N-[3-Amino-2,3-dioxo-1-(phenylmethyl)propyl]-2-(3-{2-[(difluoromethyl)oxy]phenyl}-1H-pyrazol-1-yl)pyridine-3-carboxamide] were “++ (++ means a Ki(cathepsin L)/Ki(calpain) ratio of ≧50)”, “+ (+ means 10≦Ki(cathepsin B)/Ki(calpain)<30)”, “++ (++ means a Ki(cathepsin S)/Ki(calpain) ratio of ≧100)” and “++ (++ means a Ki(cathepsin K)/Ki(calpain) ratio of ≧30)”.
Regarding `NC(=O)C(=O)C(Cc1ccccc1)NC(=O)c1cccnc1-n1ccc(-c2ccc(F)cc2F)n1` (centres unmarked) [Example 94, N-[3-Amino-2,3-dioxo-1-(phenylmethyl)propyl]-2-[3-(2,4-difluorophenyl)-1H-pyrazol-1-yl]pyridine-3-carboxamide], the “Sel cat. L: Ki(cathepsin L)/Ki(calpain) ratio” value at cathepsin L is reported as “++ (++ means a Ki(cathepsin L)/Ki(calpain) ratio of ≧50)”. The “Sel cat. B: Ki(cathepsin B)/Ki(calpain) ratio” value at cathepsin B was “++ (++ means a Ki(cathepsin B)/Ki(calpain) ratio of ≧30)”. The “Sel cat. S: Ki(cathepsin S)/Ki(calpain) ratio” value at cathepsin S is on record as “++ (++ means a Ki(cathepsin S)/Ki(calpain) ratio of ≧100)”. The “Sel cat. K: Ki(cathepsin K)/Ki(calpain) ratio” value on cathepsin K was “+ (+ means 10≦Ki(cathepsin K)/Ki(calpain)<30)”.
As to `NC(=O)C(=O)C(Cc1ccccc1)NC(=O)c1cccnc1-n1ccc(-c2ccc(C(F)(F)F)cc2)n1` (centres unmarked) [Example 60, N-(3-Amino-1-benzyl-2,3-dioxopropyl)-2-{3-[4-(trifluoromethyl)phenyl]-1H-pyrazol-1-yl}nicotinamide], the “Sel cat. L: Ki(cathepsin L)/Ki(calpain) ratio” value at cathepsin L is recorded as “++ (++ means a Ki(cathepsin L)/Ki(calpain) ratio of ≧50)”. Moreover, at cathepsin B, the “Sel cat. B: Ki(cathepsin B)/Ki(calpain) ratio” value is listed as “+ (+ means 10≦Ki(cathepsin B)/Ki(calpain)<30)”. Also, the “Sel cat. S: Ki(cathepsin S)/Ki(calpain) ratio” value at cathepsin S is “+ (+ means 50≦Ki(cathepsin S)/Ki(calpain)<100)”. Also, the “Sel cat. K: Ki(cathepsin K)/Ki(calpain) ratio” value at cathepsin K was “+ (+ means 10≦Ki(cathepsin K)/Ki(calpain)<30)”.
On to `N#Cc1cnc(-n2ccc(-c3ccccc3)n2)c(C(=O)NC(Cc2ccccc2)C(=O)C(N)=O)c1` (centres unmarked) [Example 82, N-(3-Amino-1-benzyl-2,3-dioxopropyl)-5-cyano-2-(3-phenyl-1H-pyrazol-1-yl)nicotinamide], for which the “Sel cat. L: Ki(cathepsin L)/Ki(calpain) ratio” value on cathepsin L is “++ (++ means a Ki(cathepsin L)/Ki(calpain) ratio of ≧50)”. The “Sel cat. B: Ki(cathepsin B)/Ki(calpain) ratio” value on cathepsin B is given as “++ (++ means a Ki(cathepsin B)/Ki(calpain) ratio of ≧30)”. The “Sel cat. K: Ki(cathepsin K)/Ki(calpain) ratio” value on cathepsin K is on record as “++ (++ means a Ki(cathepsin K)/Ki(calpain) ratio of ≧30)”.
